One block for each molecule: values may come before it.
Columns and labels:
[1] = target: T1, human cloned CHRM5 receptor (M5_CHO) (Homo sapiens, UniProt P08912); assay: CHRM5 Ca++ Flux Assay (agonist mode, FDSS 7000EX); assay type: cell-based; details: for Emax: Percent Activity measured to EC100 of Carbachol, read-out: M5 FDSS PA; for EC50: agonist mode, geometric mean if tested more than once, read-out: M5 FDSS EC50
T1 construct: expressed in transfected cells; host or cells: CHO (M5_CHO)
T1 sequence (P08912 1-532): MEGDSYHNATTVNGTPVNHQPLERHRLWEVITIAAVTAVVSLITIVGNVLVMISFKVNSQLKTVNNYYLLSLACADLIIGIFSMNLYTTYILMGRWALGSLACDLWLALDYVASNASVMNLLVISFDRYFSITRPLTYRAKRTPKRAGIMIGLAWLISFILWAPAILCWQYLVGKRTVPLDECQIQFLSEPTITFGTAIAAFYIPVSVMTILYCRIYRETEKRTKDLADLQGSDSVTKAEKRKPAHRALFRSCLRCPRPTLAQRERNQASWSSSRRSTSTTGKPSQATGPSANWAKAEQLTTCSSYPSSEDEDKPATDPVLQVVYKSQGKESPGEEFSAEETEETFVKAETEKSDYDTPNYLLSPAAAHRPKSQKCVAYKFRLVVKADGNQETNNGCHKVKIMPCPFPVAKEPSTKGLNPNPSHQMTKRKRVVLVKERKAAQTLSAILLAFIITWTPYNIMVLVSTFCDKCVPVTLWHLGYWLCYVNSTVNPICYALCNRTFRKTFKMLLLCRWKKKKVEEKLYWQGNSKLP
Procedure, shortened: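 Stable CHO-K1 lines (human M3 or M5), calcium-dye loaded ≥1 h, assayed in Ca/Mg-free HBSS + 20 mM HEPES + 2.5 mM probenecid. 11-pt dose response, triplicate, 3 min fluorescence read. 4-parameter regression; % activity vs carbachol EC100.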

[2] = target: T2, human cloned CHRM4 receptor (M4_CHO cells) (Homo sapiens, UniProt P08173); assay: CHRM4 Ca++ Flux Assay (agonist mode, FDSS 7000EX); assay type: cell-based; details: for Emax: Percent Activity, read-out: M4 FDSS PA; for EC50: geometric mean if tested more than once, read-out: M4 FDSS EC50
T2 construct: expressed in transfected cells; host or cells: CHO-K1
T2 sequence (P08173 1-479): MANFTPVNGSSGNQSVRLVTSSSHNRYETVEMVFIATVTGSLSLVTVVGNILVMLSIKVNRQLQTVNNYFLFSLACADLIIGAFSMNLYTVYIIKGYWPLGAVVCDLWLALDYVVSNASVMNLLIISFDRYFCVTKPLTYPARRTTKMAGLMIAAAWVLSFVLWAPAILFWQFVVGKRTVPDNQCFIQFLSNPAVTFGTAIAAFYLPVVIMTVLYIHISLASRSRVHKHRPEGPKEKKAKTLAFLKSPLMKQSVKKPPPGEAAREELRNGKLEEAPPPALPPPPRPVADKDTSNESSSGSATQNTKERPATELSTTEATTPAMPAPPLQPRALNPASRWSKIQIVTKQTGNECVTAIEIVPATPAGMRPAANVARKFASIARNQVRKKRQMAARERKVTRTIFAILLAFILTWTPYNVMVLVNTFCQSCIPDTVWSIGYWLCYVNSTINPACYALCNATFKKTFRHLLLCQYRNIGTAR
Procedure, shortened: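 Agonist-mode response was expressed as percent of the Carbachol EC100 and fitted with four-parameter nonlinear regression over an 11-point triplicate dose series. Intracellular Ca++ was tracked for 3 min by fluorescent dye in CHO-K1 cells stably expressing human CHRM4. Cells were preincubated 60 min with 20 μM ATP in buffer containing 2.5 mM probenecid.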

Compound: Fc1cncc(N2CC3(CC[C@@H](N4CCC(c5ccccc5C5CCOCC5)CC4)C3)C2)c1 [Example 5AA, (R)-2-(5-fluoropyridin-3-yl)-6-(4-(2-(tetrahydro-2H-pyran-4-yl)phenyl)piperidin-1-yl)-2-azaspiro[3.4]octane]
Emax [1]: 0% | EC50 [1]: > 25000 nM | Emax [2]: 83% | EC50 [2]: 10 nM

Compound: c1ccc(C2CCN([C@@H]3CCC4(C3)CN(c3cncnc3)C4)CC2)c(C2CCOCC2)c1 [Example 5BB, (R)-2-(pyrimidin-5-yl)-6-(4-(2-(tetrahydro-2H-pyran-4-yl)phenyl)piperidin-1-yl)-2-azaspiro[3.4]octane]
Emax [1]: 0% | EC50 [1]: > 25000 nM | Emax [2]: 80% | EC50 [2]: 17 nM

Compound: Fc1ccc(N2CC3(CC[C@@H](N4CCC(c5ccccc5C5CCOCC5)CC4)C3)C2)cn1 [Example 5CC, (R)-2-(6-fluoropyridin-3-yl)-6-(4-(2-(tetrahydro-2H-pyran-4-yl)phenyl)piperidin-1-yl)-2-azaspiro[3.4]octane]
Emax [1]: 0% | EC50 [1]: > 25000 nM | Emax [2]: 84% | EC50 [2]: 22 nM

Compound: COc1ccccc1C1CCN([C@@H]2CCC3(C2)CN(c2cnc(C)cn2)C3)CC1 [Example 5DD, (R)-6-(4-(2-methoxyphenyl)piperidin-1-yl)-2-(5-methylpyrazin-2-yl)-2-azaspiro[3.4]octane]
Emax [1]: 0% | EC50 [1]: > 25000 nM | Emax [2]: 26% | EC50 [2]: 82 nM

Compound: Cc1nccnc1N1CC2(CC[C@@H](N3CCC(c4ccccc4OCC(C)(C)O)CC3)C2)C1 [Example 5T, (R)-2-methyl-1-(2-(1-(2-(3-methylpyrazin-2-yl)-2-azaspiro[3.4]octan-6-yl)piperidin-4-yl)phenoxy)propan-2-ol]
Emax [1]: 0% | EC50 [1]: > 25000 nM | Emax [2]: 25% | EC50 [2]: 63 nM

Compound: CC(C)(O)COc1ccccc1C1CCN([C@@H]2CCC3(C2)CN(c2ncncn2)C3)CC1 [Example 5U, (R)-1-(2-(1-(2-(1,3,5-triazin-2-yl)-2-azaspiro[3.4]octan-6-yl)piperidin-4-yl)phenoxy)-2-methylpropan-2-ol]
Emax [1]: 0% | EC50 [1]: > 25000 nM | Emax [2]: 49% | EC50 [2]: 28 nM

Compound: COc1ccc(F)cc1C1CCN([C@@H]2CCC3(C2)CN(c2ccnnc2)C3)CC1 [Example 5V, (R)-6-(4-(5-fluoro-2-methoxyphenyl)piperidin-1-yl)-2-(pyridazin-4-yl)-2-azaspiro[3.4]octane]
Emax [1]: 0% | EC50 [1]: > 25000 nM | Emax [2]: 59% | EC50 [2]: 20 nM

Compound: Fc1cccc(C2CCN([C@@H]3CCC4(C3)CN(c3cncnc3)C4)CC2)c1OC1COC1 [Example 5W, (R)-6-(4-(3-fluoro-2-(oxetan-3-yloxy)phenyl)piperidin-1-yl)-2-(pyrimidin-5-yl)-2-azaspiro[3.4]octane]
Emax [1]: 0% | EC50 [1]: > 25000 nM | Emax [2]: 90% | EC50 [2]: 1 nM

Compound: COCCOc1ccccc1C1CCN([C@@H]2CCC3(C2)CN(c2cccnn2)C3)CC1 [Example 5X, (R)-6-(4-(2-(2-methoxyethoxy)phenyl)piperidin-1-yl)-2-(pyridazin-3-yl)-2-azaspiro[3.4]octane]
Emax [1]: 0% | EC50 [1]: > 25000 nM | Emax [2]: 24% | EC50 [2]: 54 nM

Compound: COCCOc1ccccc1C1CCN([C@@H]2CCC3(C2)CN(c2cnc(C)cn2)C3)CC1 [Example 5Y, (R)-6-(4-(2-(2-methoxyethoxy)phenyl)piperidin-1-yl)-2-(5-methylpyrazin-2-yl)-2-azaspiro[3.4]octane]
Emax [1]: 0% | EC50 [1]: > 25000 nM | Emax [2]: 0% | EC50 [2]: > 25000 nM

Compound: COCCOc1ccccc1C1CCN([C@@H]2CCC3(C2)CN(c2ccnnc2)C3)CC1 [Example 5Z, (R)-6-(4-(2-(2-methoxyethoxy)phenyl)piperidin-1-yl)-2-(pyridazin-4-yl)-2-azaspiro[3.4]octane]
Emax [1]: 0% | EC50 [1]: > 25000 nM | Emax [2]: 44% | EC50 [2]: 42 nM

Compound: COc1ccc(F)cc1C1CCN([C@@H]2CCC3(C2)CN(C(=O)C2COC2)C3)CC1 [Example 6A, (R)-(6-(4-(5-fluoro-2-methoxyphenyl)piperidin-1-yl)-2-azaspiro[3.4]octan-2-yl)(oxetan-3-yl)methanone]
Emax [1]: 0% | EC50 [1]: > 25000 nM | EC50 [2]: 1 nM

Compound: O=C(C1COC1)N1CC2(CC[C@@H](N3CCC(c4ccc(F)cc4OC(F)F)CC3)C2)C1 [Example 6B, (R)-(6-(4-(2-(difluoromethoxy)-4-fluorophenyl)piperidin-1-yl)-2-azaspiro[3.4]octan-2-yl)(oxetan-3-yl)methanone]
Emax [1]: 0% | EC50 [1]: > 25000 nM | Emax [2]: 50% | EC50 [2]: 5 nM

Compound: CC(C)Oc1cc(F)ccc1C1CCN([C@@H]2CCC3(C2)CN(C(=O)C2COC2)C3)CC1 [Example 6D, (R)-(6-(4-(4-fluoro-2-isopropoxyphenyl)piperidin-1-yl)-2-azaspiro[3.4]octan-2-yl)(oxetan-3-yl)methanone]
Emax [1]: 0% | EC50 [1]: > 25000 nM | Emax [2]: 53% | EC50 [2]: 11 nM

Compound: O=C(N1CC2(CC[C@@H](N3CCC(c4ccccc4C4CCOCC4)CC3)C2)C1)C1(F)CC1 [Example 6E, (R)-(1-fluorocyclopropyl)(6-(4-(2-(tetrahydro-2H-pyran-4-yl)phenyl)piperidin-1-yl)-2-azaspiro[3.4]octan-2-yl)methanone]
Emax [1]: 0% | EC50 [1]: > 25000 nM | Emax [2]: 65% | EC50 [2]: 3 nM

Compound: CC(C)(O)CCOc1ccccc1C1CCN([C@@H]2CCC3(C2)CN(C(=O)C2COC2)C3)CC1 [Example 7CC, (R)-(6-(4-(2-(3-hydroxy-3-methylbutoxy)phenyl)piperidin-1-yl)-2-azaspiro[3.4]octan-2-yl)(oxetan-3-yl)methanone]
Emax [1]: 9% | EC50 [1]: 2010 nM | Emax [2]: 46% | EC50 [2]: 5 nM

Other lines, results leading:

Emax [1]: 0% | EC50 [1]: > 25000 nM | Emax [2]: 71% | EC50 [2]: 4 nM
Compound: O=C(C1COC1)N1CC2(CC[C@@H](N3CCC(c4ccccc4OC4CC4)CC3)C2)C1 [Example 7A, (R)-(6-(4-(2-cyclopropoxyphenyl)piperidin-1-yl)-2-azaspiro[3.4]octan-2-yl)(oxetan-3-yl)methanone]

Emax [1]: 0% | EC50 [1]: > 25000 nM | Emax [2]: 44% | EC50 [2]: 4 nM
Compound: CC(C)(F)COc1ccccc1C1CCN([C@@H]2CCC3(C2)CN(C(=O)C2COC2)C3)CC1 [Example 7B, (R)-(6-(4-(2-(2-fluoro-2-methylpropoxy)phenyl)piperidin-1-yl)-2-azaspiro[3.4]octan-2-yl)(oxetan-3-yl)methanone]

Emax [1]: 0% | EC50 [1]: > 25000 nM | Emax [2]: 39% | EC50 [2]: 4 nM
Compound: O=C(C1COC1)N1CC2(CC[C@@H](N3CCC(c4ccccc4Oc4nccs4)CC3)C2)C1 [Example 7C, (R)-oxetan-3-yl(6-(4-(2-(thiazol-2-yloxy)phenyl)piperidin-1-yl)-2-azaspiro[3.4]octan-2-yl)methanone]

Emax [1]: 16% | EC50 [1]: 2200 nM | Emax [2]: 57% | EC50 [2]: 2 nM
Compound: N#CCCOc1ccccc1C1CCN([C@@H]2CCC3(C2)CN(C(=O)C2COC2)C3)CC1 [Example 7D, (R)-3-(2-(1-(2-(oxetane-3-carbonyl)-2-azaspiro[3.4]octan-6-yl)piperidin-4-yl)phenoxy)propanenitrile]

Emax [1]: 18% | EC50 [1]: 1120 nM | Emax [2]: 42% | EC50 [2]: 27 nM
Compound: O=C(C1COC1)N1CC2(CC[C@@H](N3CCC(c4ccccc4OCCOC(F)(F)F)CC3)C2)C1 [Example 7DD, (R)-oxetan-3-yl(6-(4-(2-(2-(trifluoromethoxy)ethoxy)phenyl)piperidin-1-yl)-2-azaspiro[3.4]octan-2-yl)methanone]

Emax [1]: 13% | EC50 [1]: 1560 nM | Emax [2]: 59% | EC50 [2]: 3 nM
Compound: O=C(C1COC1)N1CC2(CC[C@@H](N3CCC(c4ccccc4OC[C@@H]4CCOC4)CC3)C2)C1 [Example 7E, oxetan-3-yl((R)-6-(4-(2-(((R)-tetrahydrofuran-3-yl)methoxy)phenyl)piperidin-1-yl)-2-azaspiro[3.4]octan-2-yl)methanone]

From patent publication US12122761B2, “2-azaspiro[3.4]octane derivatives as M4 agonists” (NOVARTIS AG, priority 2019, dated 2024)
